Experimental data: PubChem BioAssay (NCI)
Several values for one entry are separate records, joined by “and”; a condition that tells them apart may be missing. Equal values may be shown once.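 Method: 48-hour compound exposure of cells in 96-well plates, five concentrations, linear interpolation of endpoints. Here, GI50 denotes the concentration required for 50% inhibition of growth. TGI: total growth inhibition.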

How the values were obtained:
Test in all cases: inhibition of tumour cell growth, NCI panel, 48 h
SK-OV-3 ovarian = system: SK-OV-3 ovarian
LOX IMVI melanoma = system: LOX IMVI melanoma
KM12 colon = system: KM12 colon
SK-MEL-2 melanoma = system: SK-MEL-2 melanoma
U251 CNS = system: U251 CNS
CCRF-CEM leukemia = system: CCRF-CEM leukemia
RPMI-8226 leukemia = system: RPMI-8226 leukemia
HCT-15 colon = system: HCT-15 colon
UACC-62 melanoma = system: UACC-62 melanoma
UO-31 renal = system: UO-31 renal

Row | SMILES | TGI (SK-OV-3 ovarian) | TGI (LOX IMVI melanoma) | TGI (KM12 colon) | TGI (SK-MEL-2 melanoma) | TGI (U251 CNS) | TGI (CCRF-CEM leukemia) [µM] | TGI (RPMI-8226 leukemia) | TGI (HCT-15 colon) | TGI (UACC-62 melanoma) | GI50 (SK-OV-3 ovarian) | GI50 (LOX IMVI melanoma) | GI50 (KM12 colon) | GI50 (SK-MEL-2 melanoma) | GI50 (UO-31 renal) | TGI (UO-31 renal) | GI50 (U251 CNS) | GI50 (CCRF-CEM leukemia) [µM] | GI50 (RPMI-8226 leukemia) | GI50 (HCT-15 colon) | GI50 (UACC-62 melanoma)
1 | c1ccc2c(c1)CCc1c(-c3ccncc3)n[nH]c1-2 | 93.6 µM | 54.8 µM | 55.7 µM | 38.4 µM | 57.8 µM | 61.7 | 84.2 µM | 87.4 µM | 34.7 µM |  |  |  |  |  |  |  |  |  |  | 
2 | CO[C@@H]1CC[C@]2(C)OC[C@H](C)[C@@H]3C[C@@H](C)[C@@H](OC(C)=O)[C@@H]4[C@H]3[C@@H]2O[C@H]4C[C@@]1(C)O | > 100 µM | > 100 µM | > 100 µM | > 100 µM | > 100 µM | > 100 | > 100 µM | > 100 µM | > 100 µM | > 100 µM | > 100 µM | > 100 µM | > 100 µM | > 100 µM | > 100 µM | > 100 µM | > 100 | > 100 µM | > 100 µM | > 100 µM
3 | COc1cc(OC)c(OC)cc1/C=N/NC(=O)N/N=C/c1cc(OC)c(OC)cc1OC | > 100 µM | > 100 µM | > 100 µM | > 100 µM | > 100 µM | > 100 | > 100 µM | > 100 µM | > 100 µM |  |  |  |  |  | > 100 µM |  |  |  |  | 
4 | COc1cc(C[P+](c2ccccc2)(c2ccccc2)c2ccccc2)cc(OC)c1OC | > 100 µM | > 100 µM | > 100 µM | > 100 µM | > 100 µM | > 100 | > 100 µM | > 100 µM | > 100 µM |  |  |  |  |  | > 100 µM |  |  |  |  | 
5 | CCn1cc(-c2ccnc3[nH]c(-c4cccc(CN(C)C)c4)cc23)c(-c2ccc(NC(=O)N(C)C)cc2)n1 | 15.2 µM and > 10 µM | 1.88 µM and 5.2 µM | 13.5 µM and > 10 µM | 9.87 µM and > 10 µM | 19.1 µM and > 10 µM | 51.6 | 15.6 µM and > 10 µM | 27.2 µM and > 10 µM | 22.5 µM and > 10 µM | 2.16 µM and 3.83 µM | 0.297 µM and 0.239 µM | 1.06 µM and 1.62 µM | 2.43 µM and 2.19 µM | 2.22 µM and 1.99 µM | 9.98 µM and > 10 µM | 2.34 µM and 4.03 µM | < 0.01 | 1.69 µM and 1.32 µM | 2.85 µM and 3.15 µM | 2.49 µM and 5.74 µM
6 | C=C(CN(C)Cc1ccccc1)c1ccc(NC(=O)c2ccc(C(=C)CN(C)Cc3ccccc3)cc2)cc1 | > 100 µM | > 100 µM | > 100 µM | > 100 µM | 45.7 µM | > 100 | 53.6 µM | > 100 µM | > 100 µM | 33.7 µM | 94.8 µM | > 100 µM | 60.9 µM | 76.2 µM | > 100 µM | 20.7 µM | > 100 | 21.7 µM | 76.5 µM | 50.2 µM
7 | CN(C)CCN1CCC(Cc2ccccc2)CC1 | > 80 µM | > 80 µM | > 80 µM | > 80 µM | > 80 µM | > 80 | > 80 µM | > 80 µM | > 80 µM | > 80 µM | > 80 µM | > 80 µM | > 80 µM | > 80 µM | > 80 µM | > 80 µM | > 80 | > 80 µM | > 80 µM | > 80 µM
8 | COc1ccc(/C=C\c2cc(OC)c(OC)c(OC)c2)cc1OCC(=O)O | 94 µM | > 100 µM | > 74 µM | > 53.9 µM | 39.6 µM | > 100 | > 100 µM | 80.8 µM | > 100 µM |  |  |  |  |  | > 94.8 µM |  |  |  |  | 
9 | NC(=O)c1cc(I)ccc1NC(=O)/C=C/c1ccccc1 | 12.8 µM | > 100 µM | > 37.4 µM | > 56.6 µM | 14.6 µM |  | 4.96 µM | > 100 µM | > 77.6 µM | 0.604 µM | 3.18 µM | 0.41 µM | 2.25 µM | 1.77 µM | > 48.9 µM | 0.504 µM | 0.36 | 0.357 µM | 0.587 µM | 0.457 µM
10 | CCOC(=O)Nc1c(C)nc2ccccn12 | > 100 µM | > 100 µM | > 100 µM | > 100 µM | > 100 µM | > 100 | > 100 µM | > 100 µM | > 100 µM | > 100 µM | > 100 µM | > 100 µM | > 100 µM | > 100 µM | > 100 µM | > 100 µM | > 100 | > 100 µM | > 100 µM | > 100 µM
11 | CCCCCCCCSC1=C(Cl)C(=O)C(OC)=C(OC)C1=O | > 100 µM | 24 µM | 37.7 µM | 30.9 µM | 26.6 µM | > 100 | > 100 µM | 72.5 µM | 24 µM |  |  |  |  |  | 25.7 µM |  |  |  |  | 
12 | O=C(O)c1ccc(CNCc2ccccc2)cc1 | > 100 µM | > 100 µM | > 100 µM | > 100 µM | > 100 µM | > 100 | > 100 µM | > 100 µM | > 100 µM |  |  |  |  |  | > 100 µM |  |  |  |  | 
13 | O=Cc1cc2c(cc1-c1cc3c(cc1C=O)OCO3)OCO2 | > 100 µM | 56.3 µM | > 100 µM | > 100 µM | > 100 µM | 82.7 | > 100 µM | > 100 µM | > 100 µM |  |  |  |  |  | > 100 µM |  |  |  |  | 
14 | C=CC12CCN(CC1)C(C(O)c1ccnc3ccc(OC)cc13)C2 (stereo not drawn) | > 100 µM | > 100 µM | > 100 µM | > 100 µM | > 100 µM | > 100 | > 100 µM | > 100 µM | > 100 µM | > 100 µM | 15.4 µM | > 100 µM | > 100 µM | 39.7 µM | > 100 µM | > 100 µM | > 100 | > 100 µM | 96.2 µM | > 100 µM
15 | O=C(c1ccc([N+](=O)[O-])cc1[N+](=O)[O-])N(/N=C/C=C/c1ccccc1)c1nnc(-c2ccccc2)c(-c2ccccc2)n1 | > 100 µM | > 100 µM | > 100 µM | 97.5 µM | > 100 µM | 84.2 | > 100 µM | > 100 µM | 70.4 µM |  |  |  |  |  | 50.6 µM |  |  |  |  | 
16 | NNc1ncnc2nc[nH]c12 | 28.4 µM | > 100 µM | 44.5 µM | 97.4 µM | > 100 µM | > 100 | 17.1 µM | > 100 µM | 39.9 µM | 2.63 µM | 2.89 µM | 3.56 µM | 9.27 µM | 2.48 µM | > 100 µM | 10.9 µM | 2.97 | 2.09 µM | 4.58 µM | 3.05 µM
